Molecular target: TmrAB (Thermus thermophilus, UniProt Q72J04+Q72J05)
Details: 2 mM Mg-ATP, 2 mM MgCl2, pH 7.5, 0.2% DDM, 40 °C, 8 min

Chain of TmrAB (Q72J05 1-600): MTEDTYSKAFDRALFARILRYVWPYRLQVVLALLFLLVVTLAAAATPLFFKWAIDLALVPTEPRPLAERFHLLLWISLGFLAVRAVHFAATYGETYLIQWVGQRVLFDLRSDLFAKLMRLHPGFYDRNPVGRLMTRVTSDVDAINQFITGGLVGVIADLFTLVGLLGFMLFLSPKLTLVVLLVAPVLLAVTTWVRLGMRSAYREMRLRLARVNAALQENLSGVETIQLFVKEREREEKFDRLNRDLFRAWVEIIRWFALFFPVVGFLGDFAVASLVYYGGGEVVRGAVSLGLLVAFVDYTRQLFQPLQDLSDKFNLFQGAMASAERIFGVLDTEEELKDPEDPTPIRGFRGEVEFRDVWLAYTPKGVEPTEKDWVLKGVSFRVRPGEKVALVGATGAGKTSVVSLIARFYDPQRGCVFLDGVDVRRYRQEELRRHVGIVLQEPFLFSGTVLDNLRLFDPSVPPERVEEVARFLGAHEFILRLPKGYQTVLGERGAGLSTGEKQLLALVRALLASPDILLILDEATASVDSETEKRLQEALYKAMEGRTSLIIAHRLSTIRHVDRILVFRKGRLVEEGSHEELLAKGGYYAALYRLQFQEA
Chain of TmrAB (Q72J04 1-578): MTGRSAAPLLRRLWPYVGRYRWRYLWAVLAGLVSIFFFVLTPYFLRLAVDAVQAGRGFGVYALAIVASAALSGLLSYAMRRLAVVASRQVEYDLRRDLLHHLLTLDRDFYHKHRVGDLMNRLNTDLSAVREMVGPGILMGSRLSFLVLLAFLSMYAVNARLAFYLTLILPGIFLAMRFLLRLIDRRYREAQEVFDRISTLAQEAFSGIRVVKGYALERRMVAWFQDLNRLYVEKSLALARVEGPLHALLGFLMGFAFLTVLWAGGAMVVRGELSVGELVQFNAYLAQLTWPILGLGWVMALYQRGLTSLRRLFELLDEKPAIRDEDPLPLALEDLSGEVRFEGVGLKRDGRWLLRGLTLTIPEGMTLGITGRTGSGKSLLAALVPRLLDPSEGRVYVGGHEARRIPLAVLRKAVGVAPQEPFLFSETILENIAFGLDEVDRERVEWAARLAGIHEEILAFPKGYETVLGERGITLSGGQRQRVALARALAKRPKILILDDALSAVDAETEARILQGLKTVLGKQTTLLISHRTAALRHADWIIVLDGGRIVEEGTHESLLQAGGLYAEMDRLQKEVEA

## Nc1ncnc2c1ncn2[C@@H]1O[C@H](COP(=O)(O)OP(=O)(O)OP(=O)(O)O)[C@@H](O)[C@H]1O [ATP]
  ATPase activity: A high ATPase activity above background demonstrated TmrAB function (Figure 1c)

From PMC8157534 (ACS Nano, 2021)
